Data as given in patent US20150307841A1, “Composition for Promoting Differentiation and Proliferation of Neural Stem Cell and Neural Precursor Cell” (priority 2014, published 2015).
Entries after “also recorded” stand apart in the source; their conditions may differ.

Test system: GAD67-, VGluT1-, ChAT-positive neurons and OX42 reactive microglia in the hippocampus
Experiment: Immunohistochemical analysis of GAD67, VGluT1, ChAT, OX42 in hippocampus (Experimental Example 1)
Assay type: in vivo, rat
Method: Immunostaining was carried out using antibodies against VGluT1 (diluted 1:500, Chemicon), ChAT (1:500, Chemicon), GFAP (1:1,000, Chemicon), tyrosine hydroxylase (TH, 1:500, Chemicon) and OX42 (CD11b/c, 1:250, Serotec) as primary antibodies instead of the anti-BrdU antibodies used in (4). The other process was the same as in (4), except that incubation was performed at 37° C. for 30 minutes in 2 N HCl.
In the immunohistochemical analysis, the number of the cells immnunostained against each antibody was counted from 5 or 6 hippocampal coronal sections. For each staining analysis, every fifth cryosections of the hippocampal region of brain tissues (AP: bregma −4.5 to −4.3 mm) were taken for immunostaining. The number of the immnunostained cells was represented as an average of number of cells in the hippocampal region of one brain slice.
The number of the VGluT1- and GAD-positive cells in the brain slice samples 1 week and 4 weeks after the administration of soyasaponin I was presented per microscopic field (×400-VGluT1, ×800-GAD67) and the number of the ChAT-positive cells was presented per each hippocampal region (10-12 confocal laser microscopic fields). 5-11 animals were used per group. Western blotted membranes were analyzed using the multi-gauge, bio-imaging program on LAS-4000 Mini (Fujifilm Life Science, Stamford, Conn., USA). Densitometeric analysis of the expression ratios of VGluT1/β-actin, GAD65/67/β-actin and ChAT/β-actin was normalized to the vehicle group.

C[C@@H]1O[C@@H](O[C@H]2[C@H](O[C@H]3[C@H](O[C@H]4CC[C@@]5(C)[C@@H](CC[C@]6(C)[C@@H]5CC=C5[C@@H]7CC(C)(C)C[C@@H](O)[C@]7(C)CC[C@]56C)[C@@]4(C)CO)O[C@H](C(=O)O)[C@@H](O)[C@@H]3O)O[C@H](CO)[C@H](O)[C@@H]2O)[C@H](O)[C@H](O)[C@H]1O [soyasaponin I]
Number of VGluT1-positive cells (10 mg/kg oral): 57.33±2.43 cells per microscopic field
Number of VGluT1-positive cells compared to the IBO group (5, 10, 20 mg/kg oral): increased up to the level of the normal group
OX42 (reactive microglia) intensity normalized to the normal group (DG and CA1 regions, 5, 10, 20 mg/kg): decreased in a dose-dependent manner; also recorded: decreased again to the level of the normal model
